{"source": "paper PMC6399351", "about": "“Cationic Intrinsically Disordered Antimicrobial Peptides (CIDAMPs) Represent a New Paradigm of Innate Defense with a Potential for Novel Anti-Infectives” (Scientific Reports, 2019)", "key": {"P. aeruginosa ATCC 10145": {"tested_on": "P. aeruginosa ATCC 10145", "conditions": "CFU assay, 10 mM NaP, pH 5.5, 0.25% glucose"}, "S. aureus ATCC 6538": {"tested_on": "S. aureus ATCC 6538", "conditions": "for LD90 / LD100: CFU assay, 10 mM NaP"}}, "note": "Where two headings read alike, the source gives them in different places. Square brackets hold non-standard residues; d marks the D form. Ends that are not written are not given here. Peptide text beside a SMILES is read from it. * marks the point of attachment. Palmitoyl = CCCCCCCCCCCCCCCC(=O)*; dOrn = NCCC[C@@H](N)C(=O)O; Orn = NCCC[C@H](N)C(=O)O", "data": [{"molecule": "CCCCCCCCCCCCCCCC(=O)NCC(=O)N[C@@H](Cc1c[nH]cn1)C(=O)N[C@@H](Cc1c[nH]cn1)C(=O)NCC(=O)NCC(=O)N[C@@H](Cc1c[nH]cn1)C(=O)NCC(=O)NCC(=O)N[C@@H](Cc1c[nH]cn1)C(=O)NCC(=O)N[C@@H](Cc1c[nH]cn1)C(=O)NCC(=O)N[C@@H](Cc1c[nH]cn1)C(=O)O", "note": "[Pal-GH13] (Palmitoyl-GHHGGHGGHGHGH-OH; C-terminus assumed)", "values": [{"measurement": "LD90", "setting": "P. aeruginosa ATCC 10145", "value": 0.075, "unit": "µg/mL"}, {"measurement": "LD100", "setting": "P. aeruginosa ATCC 10145", "value": 0.3, "unit": "µg/mL"}, {"measurement": "LD90", "setting": "S. aureus ATCC 6538; pH 5.5, 0.25% glucose", "value": 0.3, "unit": "µg/mL"}, {"measurement": "LD100", "setting": "S. aureus ATCC 6538; pH 5.5, 0.25% glucose", "value": 300, "unit": "µg/mL"}, {"measurement": "LD90", "setting": "S. aureus ATCC 6538; pH 7.0, 0.25% glucose", "value": 0.3, "unit": "µg/mL"}, {"measurement": "LD100", "setting": "S. aureus ATCC 6538; pH 7.0, 0.25% glucose", "value": ">300", "unit": "µg/mL"}, {"measurement": "S. aureus ATCC 6538-cidal activity", "setting": "S. aureus ATCC 6538; pH 7.5, at concentrations >8 µM and <0.1 µM (antibiotic paradox)", "value": "complete loss of bactericidal activity"}]}, {"molecule": "CCCCCCCCCCCCCCCC(=O)NCC(=O)N[C@@H](CCCCN)C(=O)NCC(=O)N[C@@H](CCCCN)C(=O)O", "note": "[Pal-GK4] (Palmitoyl-GKGK-OH; C-terminus assumed)", "values": [{"measurement": "LD100", "setting": "P. aeruginosa ATCC 10145", "value": 9.375, "unit": "µg/mL"}, {"measurement": "LD90", "setting": "S. aureus ATCC 6538; pH 5.5, 0.25% glucose", "value": 4.7, "unit": "µg/mL"}, {"measurement": "LD100", "setting": "S. aureus ATCC 6538; pH 5.5, 0.25% glucose", "value": 9.375, "unit": "µg/mL"}]}, {"molecule": "CCCCCCCCCCCCCCCC(=O)NCC(=O)N[C@H](CCCNC(=N)N)C(=O)NCC(=O)N[C@H](CCCNC(=N)N)C(=O)O", "note": "[Pal-(D)-GR4] (Palmitoyl-G[dR]G[dR]-OH; C-terminus assumed)", "values": [{"measurement": "LD90", "setting": "P. aeruginosa ATCC 10145", "value": 18.75, "unit": "µg/mL"}, {"measurement": "LD100", "setting": "P. aeruginosa ATCC 10145", "value": 150, "unit": "µg/mL"}, {"measurement": "LD90", "setting": "S. aureus ATCC 6538; pH 5.5, 0.25% glucose", "value": 18.75, "unit": "µg/mL"}, {"measurement": "LD100", "setting": "S. aureus ATCC 6538; pH 5.5, 0.25% glucose", "value": 37.5, "unit": "µg/mL"}]}, {"molecule": "CCCCCCCCCCCCCCCC(=O)NCC(=O)N[C@@H](CCCCN)C(=O)N[C@@H](CCCCN)C(=O)NCC(=O)NCC(=O)N[C@@H](CCCCN)C(=O)NCC(=O)NCC(=O)N[C@@H](CCCCN)C(=O)NCC(=O)N[C@@H](CCCCN)C(=O)NCC(=O)N[C@@H](CCCCN)C(=O)O", "note": "[Pal-K-GR13] (Palmitoyl-GKKGGKGGKGKGK-OH; C-terminus assumed)", "values": [{"measurement": "LD90", "setting": "P. aeruginosa ATCC 10145", "value": "< 0.019", "unit": "µg/mL"}, {"measurement": "LD100", "setting": "P. aeruginosa ATCC 10145", "value": 0.15, "unit": "µg/mL"}, {"measurement": "LD90", "setting": "S. aureus ATCC 6538; pH 5.5, 0.25% glucose", "value": 0.59, "unit": "µg/mL"}, {"measurement": "LD100", "setting": "S. aureus ATCC 6538; pH 5.5, 0.25% glucose", "value": ">300", "unit": "µg/mL"}]}, {"molecule": "CCCCCCCCCCCCCCCC(=O)NCC(=O)N[C@H](CCCN)C(=O)NCC(=O)N[C@H](CCCN)C(=O)O", "note": "[Pal-(D)-GO4] (Palmitoyl-G[dOrn]G[dOrn]-OH; C-terminus assumed)", "values": [{"measurement": "LD90", "setting": "P. aeruginosa ATCC 10145", "value": 1.18, "unit": "µg/mL"}, {"measurement": "LD100", "setting": "P. aeruginosa ATCC 10145", "value": 9.38, "unit": "µg/mL"}, {"measurement": "LD90", "setting": "S. aureus ATCC 6538; pH 5.5, 0.25% glucose", "value": 9.38, "unit": "µg/mL"}, {"measurement": "LD100", "setting": "S. aureus ATCC 6538; pH 5.5, 0.25% glucose", "value": 18.75, "unit": "µg/mL"}]}, {"molecule": "CCCCCCCCCCCCCCCC(=O)NCC(=O)N[C@@H](CCCN)C(=O)N[C@@H](CCCN)C(=O)NCC(=O)NCC(=O)N[C@@H](CCCN)C(=O)NCC(=O)NCC(=O)N[C@@H](CCCN)C(=O)NCC(=O)N[C@@H](CCCN)C(=O)NCC(=O)N[C@@H](CCCN)C(=O)O", "note": "[Pal-Orn-GR13] (Palmitoyl-G[Orn][Orn]GG[Orn]GG[Orn]G[Orn]G[Orn]-OH; C-terminus assumed)", "values": [{"measurement": "LD90", "setting": "P. aeruginosa ATCC 10145", "value": 0.075, "unit": "µg/mL"}, {"measurement": "LD100", "setting": "P. aeruginosa ATCC 10145", "value": 0.3, "unit": "µg/mL"}, {"measurement": "LD90", "setting": "S. aureus ATCC 6538; pH 5.5, 0.25% glucose", "value": 0.15, "unit": "µg/mL"}, {"measurement": "LD100", "setting": "S. aureus ATCC 6538; pH 5.5, 0.25% glucose", "value": 18.75, "unit": "µg/mL"}]}, {"molecule": "GRRGSGGGRSSSRGGRGSGSGR [HR 1-18,4H-4R/L-G]", "values": [{"measurement": "LD100", "setting": "P. aeruginosa ATCC 10145", "value": 0.15, "unit": "µg/mL"}, {"measurement": "LD90", "setting": "S. aureus ATCC 6538; pH 5.5, 0.25% glucose", "value": "> 300", "unit": "µg/mL"}, {"measurement": "LD100", "setting": "S. aureus ATCC 6538; pH 5.5, 0.25% glucose", "value": "> 300", "unit": "µg/mL"}]}, {"molecule": "CCCCCCCCCCCCCCCC(=O)NCC(=O)N[C@@H](CCCN)C(=O)NCC(=O)N[C@@H](CCCN)C(=O)O", "note": "[Pal-GO4] (Palmitoyl-G[Orn]G[Orn]-OH; C-terminus assumed)", "values": [{"measurement": "LD90", "setting": "P. aeruginosa ATCC 10145", "value": 2.35, "unit": "µg/mL"}, {"measurement": "LD100", "setting": "P. aeruginosa ATCC 10145", "value": 18.75, "unit": "µg/mL"}, {"measurement": "LD90", "setting": "S. aureus ATCC 6538; pH 5.5, 0.25% glucose", "value": 9.38, "unit": "µg/mL"}]}, {"molecule": "SRRSSSLSRSSSRSSRSSSSSR [HR 1-18,4H-4R/9G-9S]", "values": [{"measurement": "LD90", "setting": "P. aeruginosa ATCC 10145", "value": 0.15, "unit": "µg/mL"}, {"measurement": "LD100", "setting": "P. aeruginosa ATCC 10145", "value": 1.18, "unit": "µg/mL"}, {"measurement": "LD90", "setting": "S. aureus ATCC 6538; pH 5.5, 0.25% glucose", "value": 150, "unit": "µg/mL"}, {"measurement": "LD100", "setting": "S. aureus ATCC 6538; pH 5.5, 0.25% glucose", "value": "> 300", "unit": "µg/mL"}, {"measurement": "LD90", "setting": "S. aureus ATCC 6538; pH 7.2, 0.25% glucose", "value": 75, "unit": "µg/mL"}, {"measurement": "LD100", "setting": "S. aureus ATCC 6538; pH 7.2, 0.25% glucose", "value": "> 300", "unit": "µg/mL"}]}, {"molecule": "CCCCCCCCCCCCCCCC(=O)NCC(=O)N[C@H](CCCCN)C(=O)NCC(=O)N[C@H](CCCCN)C(=O)O", "note": "[Pal-(D)-GK4] (Palmitoyl-G[dK]G[dK]-OH; C-terminus assumed)", "values": [{"measurement": "LD90", "setting": "P. aeruginosa ATCC 10145", "value": 1.18, "unit": "µg/mL"}, {"measurement": "LD100", "setting": "P. aeruginosa ATCC 10145", "value": 4.7, "unit": "µg/mL"}, {"measurement": "LD90", "setting": "S. aureus ATCC 6538; pH 5.5, 0.25% glucose", "value": 4.7, "unit": "µg/mL"}, {"measurement": "LD100", "setting": "S. aureus ATCC 6538; pH 5.5, 0.25% glucose", "value": 9.375, "unit": "µg/mL"}]}, {"molecule": "LRHGSGLGHSSSHGQHGSGSGR [HR 1-18-Leu]", "values": [{"measurement": "LD90", "setting": "P. aeruginosa ATCC 10145", "value": 4.7, "unit": "µg/mL"}, {"measurement": "LD90", "setting": "S. aureus ATCC 6538; pH 5.5, 0.25% glucose", "value": 300, "unit": "µg/mL"}, {"measurement": "LD100", "setting": "S. aureus ATCC 6538; pH 5.5, 0.25% glucose", "value": "> 300", "unit": "µg/mL"}]}]}
